44 molecules from ChEMBL document CHEMBL3714766, “Tetrahydroisoquinoline compounds and their use as pyruvate dehydrogenase kinase inhibitors” (2015) can be followed below.

Test [1] has as its target T1, Pyruvate dehydrogenase kinase (Homo sapiens, UniProt Q15119+Q15120+Q16654+Q15118). Nature of the test: Binding affinity to pyruvate dehydrogenase kinase (unknown origin) by VER-00160364 probe based fluorescence polarization assay. A general note: In fluorescence polarisation assays a small probe gives low polarisation when free and higher when bound to something large.

In test [2] the target is T1, Pyruvate dehydrogenase kinase. Nature of the test: Inhibition of pyruvate dehydrogenase kinase in human PC3 cells incubated for 90 mins by phospho(Ser293)E1alpha MSP ELISA method. The test is classed as cell-based. As to conditions: pc-3. (In general: An ELISA detects its analyte on a solid surface through an enzyme-linked reagent.)
Test [3] shares this target. Nature of the test: Inhibition of pyruvate dehydrogenase kinase (unknown origin) assessed as reduction in E1 phosphorylation incubated for 1 hr by DELFIA method. The test is classed as protein assay.

The term IC50 denotes the concentration needed to halve the response being measured. With `COc1cnc(Cl)nc1-c1ccc2c(c1)CC[C@H](C)N2C(=O)c1ccc(O)cc1O`, the results for the IC50 in test [1] and in test [2] were 100 nM and 1000 nM, respectively.

On to `Cc1cc(S(=O)(=O)NCc2ccccc2)cnc1-c1ccc2c(c1)CCC(c1cccnc1)N2C(=O)c1ccc(O)cc1O` (centres undefined), for which, in test [3], the IC50 stood at 10 nM.

In the case of `C[C@H]1CCc2cc(-c3nc(Cl)nc4c3ccn4C)ccc2N1C(=O)c1ccc(O)cc1O`, the IC50 in test [1] and in test [2] was 1000 nM in each case.

Turning to `C[C@H]1CCc2cc(-c3ncnc4ccsc34)ccc2N1C(=O)c1ccc(O)cc1O`, the IC50 came to 100 nM in test [1] and 1000 nM in test [2].

On to `Cc1cc(S(=O)(=O)N2CCC(F)(F)CC2)cnc1-c1ccc2c(c1)CCC(c1cccnc1)N2C(=O)c1ccc(O)cc1O` (centres undefined), for which the IC50 in test [3] was 10 nM.

For `C[C@H]1CCc2cc(-c3nc(Cl)nc4[nH]ccc34)ccc2N1C(=O)c1ccc(O)cc1O`, the IC50 in test [1] and in test [2] was 1000 nM throughout.

`C[C@H]1CCc2cc(C(=O)N(C)Cc3cccc4ccccc34)ccc2N1C(=O)c1ccc(O)cc1O`: the figures for the IC50 in test [1] and in test [2] were 100 nM and 1000 nM, respectively.

In test [1], `O=C(c1ccc(O)cc1O)N1c2ccccc2CCC1c1ccco1` (centres undefined) registered an IC50 of 1000 nM.

For `Cc1nc(C(F)(F)F)nc(-c2ccc3c(c2)CC[C@H](C)N3C(=O)c2ccc(O)cc2O)c1C`, the IC50 is 100 nM in test [1] and 1000 nM in test [2].

Regarding `Cc1cc(N)cnc1-c1ccc2c(c1)CC[C@H](C)N2C(=O)c1ccc(O)cc1O`, the IC50 in test [1] was 10 nM; in test [2] it was 1000 nM.

Regarding `CCNc1ccc(-c2ccc3c(c2)CC[C@H](C)N3C(=O)c2ccc(O)cc2O)c(C)n1`, the results for the 50% inhibitory concentration (IC50) in test [1] and in test [2] were 100 nM and 1000 nM, respectively.

As for `Cc1cc2ccccc2nc1-c1ccc2c(c1)CC[C@H](C)N2C(=O)c1ccc(O)cc1O`, the IC50 in test [1] is 100 nM; in test [2] it was 1000 nM.

With `Cc1cc(S(=O)(=O)NCc2ccncc2)cnc1-c1ccc2c(c1)CC[C@H](C)N2C(=O)c1ccc(O)cc1O`, the half-maximal inhibitory concentration (IC50) in test [1] came out at 10 nM; in test [2], 1000 nM.

Take `C[C@H]1CCc2cc(-c3ccnc4ccccc34)ccc2N1C(=O)c1ccc(O)cc1O`: the half-maximal inhibitory concentration (IC50) in test [1] came to 100 nM; in test [2] it was 1000 nM.

For `O=C(c1ccc(O)cc1O)N1c2ccc(-c3ncnc4cccc(F)c34)cc2CCC1c1cccnc1` (centres undefined), the IC50 in test [3] was 10 nM.

As to `Cc1cnc(Cl)nc1-c1ccc2c(c1)CC[C@H](C)N2C(=O)c1cc(F)c(O)cc1O`, the IC50 is 10 nM in test [1] and 1000 nM in test [2].

The molecule `O=C(c1ccc(O)cc1O)N1c2ccccc2CCC1c1cccs1` (centres undefined) had a 50% inhibitory concentration (IC50) in test [1] of 1000 nM.

The molecule `CC(C)C(=O)Nc1ccc2c(c1)CCCN2C(=O)c1ccc(O)cc1O` had a half-inhibitory concentration (IC50) in test [1] of 1000 nM.

`Cc1n[nH]c(C)c1C1CCc2ccccc2N1C(=O)c1ccc(O)cc1O` (centres undefined) returned an IC50 in test [1] of 1000 nM.

Take `Cc1cnc(Cl)nc1-c1ccc2c(c1)CC[C@H](c1cccnc1)N2C(=O)c1ccc(O)cc1O`: the IC50 in test [3] was 100 nM; in test [2], 1000 nM.

For the molecule `C[C@H]1CCc2cc(C(=O)N(C)Cc3cccc4cnccc34)ccc2N1C(=O)c1ccc(O)cc1O`, the IC50 in test [1] is 10 nM; in test [2], 1000 nM.

In the case of `Cc1cc(S(=O)(=O)N2CC(F)(F)C2)cnc1-c1ccc2c(c1)CCC(c1cccnc1)N2C(=O)c1ccc(O)cc1O` (centres undefined), in test [3], the 50% inhibitory concentration (IC50) is on record as 10 nM.

As to `Cc1cc(S(=O)(=O)NCc2cccs2)cnc1-c1ccc2c(c1)CC[C@H](C)N2C(=O)c1ccc(O)cc1O`, the concentration for half-maximal inhibition (IC50) amounted to 10 nM in test [1] and 1000 nM in test [2].

Regarding `O=C(c1ccc(O)cc1O)N1c2ccc(-c3nc(Cl)nc4[nH]ccc34)cc2CCC1c1cccnc1` (centres undefined), the values for the concentration for half-maximal inhibition (IC50) in test [1] and in test [2] were 100 nM and 1000 nM, respectively.

Turning to `C[C@H]1CCc2cc(-c3nc(Cl)nc4ccsc34)ccc2N1C(=O)c1ccc(O)cc1O`, the IC50 in test [1] and in test [2] was 1000 nM in each case.

As for `Cc1cnc(Cl)nc1-c1ccc2c(c1)CCC(C)N2C(=O)c1cc(Cl)c(O)cc1O` (centres undefined), the 50% inhibitory concentration (IC50) in test [1] is 100 nM; in test [2], 1000 nM.

In the case of `O=C(c1cc(Cl)c(O)cc1O)N1c2ccccc2CC[C@@H]1c1cccnc1`, the IC50 in test [3] is 100 nM.

For the molecule `C[C@H]1CCc2cc(C(=O)N(C)Cc3cccs3)ccc2N1C(=O)c1ccc(O)cc1O`, the half-inhibitory concentration (IC50) in test [1] was determined as 10 nM; in test [2], 10000 nM.

For the molecule `Cc1csc2ncnc(-c3ccc4c(c3)CC[C@H](C)N4C(=O)c3ccc(O)cc3O)c12`, the IC50 in test [1] was determined as 100 nM; in test [2] it was 1000 nM.

Take `Cc1sc2ncnc(-c3ccc4c(c3)CC[C@H](C)N4C(=O)c3ccc(O)cc3O)c2c1C`: the 50% inhibitory concentration (IC50) in test [1] was 100 nM; in test [2], 10000 nM.

For `CSc1nc(-c2ccc3c(c2)CC[C@H](C)N3C(=O)c2ccc(O)cc2O)c2cc[nH]c2n1`, the IC50 in test [1] and in test [2] was 1000 nM throughout.

Take `COc1ccc(CN(C)C(=O)c2ccc3c(c2)CC[C@H](C)N3C(=O)c2ccc(O)cc2O)cc1`: the IC50 in test [1] turned out to be 100 nM; in test [2], 1000 nM.

For the molecule `C[C@H]1CCc2cc(C(=O)N(C)Cc3ccc4nccnc4c3)ccc2N1C(=O)c1ccc(O)cc1O`, the half-inhibitory concentration (IC50) in test [1] is 10 nM; in test [2] it was 1000 nM.

Turning to `COc1cnc(Cl)nc1-c1ccc2c(c1)CC[C@H](c1cccnc1)N2C(=O)c1cc(Cl)c(O)cc1O`, the concentration for half-maximal inhibition (IC50) in test [3] was 100 nM; in test [2], 1000 nM.

`O=C(c1ccc(O)cc1O)N1c2ccccc2CCC1C(F)(F)F` (centres undefined): the IC50 in test [3] is on record as 100 nM.

For the molecule `O=C(c1ccc(O)cc1O)N1c2ccccc2CCC1c1ccccn1` (centres undefined), the IC50 in test [1] amounted to 1000 nM.

Regarding `COCCNS(=O)(=O)c1cnc(-c2ccc3c(c2)CC[C@H](C)N3C(=O)c2ccc(O)cc2O)c(C)c1`, the IC50 worked out at 100 nM in test [1] and 10000 nM in test [2].

Turning to `CCN(CC)S(=O)(=O)c1ccc2c(c1)CCC(C)N2C(=O)c1ccc(O)cc1O` (centres undefined), the 50% inhibitory concentration (IC50) in test [1] turned out to be 100 nM.

As to `Cc1cc(S(=O)(=O)NCC2CC2)cnc1-c1ccc2c(c1)CC[C@H](C)N2C(=O)c1ccc(O)cc1O`, the IC50 came to 100 nM in test [1] and 1000 nM in test [2].

In test [1], `O=C(c1ccc(O)cc1O)N1c2ccccc2CCC1c1ccn[nH]1` (centres undefined) showed an IC50 of 100 nM.

As to `COCCOc1ncc(C)c(-c2ccc3c(c2)CC[C@H](C)N3C(=O)c2ccc(O)cc2O)n1`, the IC50 in test [1] came to 100 nM; in test [2], 1000 nM.

Consider `C[C@H]1CCc2cc(C(=O)N(C)Cc3ccc4ccccc4n3)ccc2N1C(=O)c1ccc(O)cc1O`, for which the IC50 was found to be 100 nM in test [1] and 1000 nM in test [2].

For the molecule `C[C@H]1CCc2cc(-c3ncnc4cccc(F)c34)ccc2N1C(=O)c1ccc(O)cc1O`, the results for the IC50 in test [1] and in test [2] were 10 nM and 1000 nM, respectively.

In turn, `Cc1cccnc1-c1ccc2c(c1)CCC(c1cccnc1)N2C(=O)c1ccc(O)cc1O` (centres undefined) yielded a half-maximal inhibitory concentration (IC50) in test [1] of 10 nM.
